Measurements published in PubChem BioAssay AID330 (DTP/NCI, 2004).
Where “and” joins values, the source holds several entries; their conditions need not be identical. Equal entries are not always repeated. Toxic doses and inconclusive results are not listed. Rule for the calls: active = survival T/C of 150% or more; inactive = T/C below 125% in these data. Peptide text beside a SMILES is read from it. * marks the point of attachment. Boc = CC(C)(C)OC(=O)*; NHNH2 = NN*

System: P388 leukemia ip, CD2F1 mice, survival T/C
Test: NCI In Vivo Anticancer Drug Screen. Data for tumor model P388 Leukemia (intraperitoneal) in CD2F1 (CDF1) mice
Settings: endpoint: median survival time, higher = longer survival
Summary of the method: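 Mice carrying the transplanted tumor received test compound or vehicle. Survival was recorded in each group, and the value is the treated-group measurement divided by that of the vehicle-treated control group.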

[1] = dose: 50.0 mg/kg/injection, schedule: Q01DX005 (ip), vehicle: saline
[2] = dose: 100.0 mg/kg/injection, schedule: Q01DX005 (ip), vehicle: saline
[3] = dose: 200.0 mg/kg/injection, schedule: Q01DX005 (ip), vehicle: saline
[4] = dose: 50.0 mg/kg/injection, schedule: Q01DX009 (ip), vehicle: saline with Tween-80
[5] = dose: 100.0 mg/kg/injection, schedule: Q01DX009 (ip), vehicle: saline with Tween-80
[6] = dose: 200.0 mg/kg/injection, schedule: Q01DX009 (ip), vehicle: saline with Tween-80
[7] = dose: 60.0 mg/kg/injection, schedule: Q01DX005 (ip), vehicle: Klucel (hydroxypropylcellulose) (HPC)
[8] = dose: 120.0 mg/kg/injection, schedule: Q01DX005 (ip), vehicle: Klucel (hydroxypropylcellulose) (HPC)
[9] = dose: 240.0 mg/kg/injection, schedule: Q01DX005 (ip), vehicle: Klucel (hydroxypropylcellulose) (HPC)
[10] = dose: 60.0 mg/kg/injection, schedule: Q01DX005 (ip), vehicle: saline with Tween-80
[11] = dose: 120.0 mg/kg/injection, schedule: Q01DX005 (ip), vehicle: saline with Tween-80

Measured: T/C

CCC(=O)NNc1cccc(Cl)n1
inactive: dose: 50.0 mg/kg/injection, schedule: Q01DX001 (ip), vehicle: Klucel (hydroxypropylcellulose) (HPC) 98 % of control | dose: 100.0 mg/kg/injection, schedule: Q01DX001 (ip), vehicle: Klucel (hydroxypropylcellulose) (HPC) 94 % of control | dose: 200.0 mg/kg/injection, schedule: Q01DX001 (ip), vehicle: Klucel (hydroxypropylcellulose) (HPC) 108 % of control

CN1c2ccccc2C2=C(C(=O)CCS2)S1(=O)=O
inactive: [1] 109 % of control | [2] 100 % of control | [3] 101 % of control

Oc1[nH]c(N=C2N=c3ccccc3=N2)c2ccccc12
inactive: [4] 118 % of control | [5] 103 % of control | [6] 104 % of control

CC(C)C(NC(=O)C(Cc1c[nH]c2ccccc12)NC(=O)OC(C)(C)C)C(=O)NN (stereo not drawn) (Boc-Trp-Val-NHNH2; configuration not given here)
inactive: dose: 12.5 mg/kg/injection, schedule: Q01DX009 (ip), vehicle: other 98 % of control | dose: 25.0 mg/kg/injection, schedule: Q01DX009 (ip), vehicle: other 98 % of control | dose: 50.0 mg/kg/injection, schedule: Q01DX009 (ip), vehicle: other 91 % of control | dose: 100.0 mg/kg/injection, schedule: Q01DX009 (ip), vehicle: other 89 % of control | dose: 200.0 mg/kg/injection, schedule: Q01DX009 (ip), vehicle: other 94 % of control

CC(=O)Oc1cccc(C#N)c1
inactive: dose: 100.0 mg/kg/injection, schedule: Q04DX003 (ip), vehicle: saline with Tween-80 100 % of control | dose: 200.0 mg/kg/injection, schedule: Q04DX003 (ip), vehicle: saline with Tween-80 100 % of control | dose: 400.0 mg/kg/injection, schedule: Q04DX003 (ip), vehicle: saline with Tween-80 104 % of control

CNC(=S)N/N=C(\C=N\NC(=S)NC)c1ccc(C)cc1
inactive: dose: 50.0 mg/kg/injection, schedule: Q01DX009 (ip), vehicle: Klucel (hydroxypropylcellulose) (HPC) 98 % of control | dose: 100.0 mg/kg/injection, schedule: Q01DX009 (ip), vehicle: Klucel (hydroxypropylcellulose) (HPC) 98 % of control | dose: 200.0 mg/kg/injection, schedule: Q01DX009 (ip), vehicle: Klucel (hydroxypropylcellulose) (HPC) 90 % of control | dose: 400.0 mg/kg/injection, schedule: Q01DX009 (ip), vehicle: Klucel (hydroxypropylcellulose) (HPC) 90 % of control

COC(=O)C(c1c(O)cc(C)oc1=O)C(C(=O)OC)c1c(O)cc(C)oc1=O (stereo unspecified)
inactive: dose: 100.0 mg/kg/injection, schedule: Q04DX003 (ip), vehicle: Klucel (hydroxypropylcellulose) (HPC) 96 % of control | dose: 200.0 mg/kg/injection, schedule: Q04DX003 (ip), vehicle: Klucel (hydroxypropylcellulose) (HPC) 95 % of control | dose: 400.0 mg/kg/injection, schedule: Q04DX003 (ip), vehicle: Klucel (hydroxypropylcellulose) (HPC) 96 % of control

N#Cc1cc([N+](=O)[O-])cnc1Sc1ncccn1
inactive: dose: 6.25 mg/kg/injection, schedule: Q01DX009 (ip), vehicle: Klucel (hydroxypropylcellulose) (HPC) 108 % of control | dose: 12.5 mg/kg/injection, schedule: Q01DX009 (ip), vehicle: Klucel (hydroxypropylcellulose) (HPC) 104 % of control | dose: 25.0 mg/kg/injection, schedule: Q01DX009 (ip), vehicle: Klucel (hydroxypropylcellulose) (HPC) 90 % of control

COC(=O)N1CC2[C@H](O)[C@H](O)C1ON2c1ccccc1 (stereo partly specified)
inactive: [7] 101 % of control | [8] 94 % of control | [9] 93 % of control

COc1cc(CCN(C)C)c(C2C(=O)c3ccc4c(c3C2=O)OCO4)cc1OC (stereo unspecified)
inactive: dose: 0.15 mg/kg/injection, schedule: Q01DX005 (ip), vehicle: Klucel (hydroxypropylcellulose) (HPC) 103 % of control | dose: 0.3 mg/kg/injection, schedule: Q01DX005 (ip), vehicle: Klucel (hydroxypropylcellulose) (HPC) 104 % of control | dose: 0.6 mg/kg/injection, schedule: Q01DX005 (ip), vehicle: Klucel (hydroxypropylcellulose) (HPC) 100 % of control | dose: 1.2 mg/kg/injection, schedule: Q01DX005 (ip), vehicle: Klucel (hydroxypropylcellulose) (HPC) 99 % of control

O=[n+]1c2c(n([O-])c3ccccc31)-c1cccc3cccc-2c13
inactive: dose: 12.5 mg/kg/injection, schedule: Q01DX010 (ip), vehicle: saline 100 % of control | dose: 25.0 mg/kg/injection, schedule: Q01DX010 (ip), vehicle: saline 100 % of control | dose: 50.0 mg/kg/injection, schedule: Q01DX010 (ip), vehicle: saline 100 % of control | dose: 100.0 mg/kg/injection, schedule: Q01DX010 (ip), vehicle: saline 100 % of control

CC(C)(c1ccccc1)c1cc(CN2CCCCC2)c(O)c(CN2CCCCC2)c1
inactive: dose: 0.78 mg/kg/injection, schedule: Q01DX009 (ip), vehicle: saline 100 % of control and 95 % of control | dose: 1.56 mg/kg/injection, schedule: Q01DX009 (ip), vehicle: saline 104 % of control and 112 % of control | dose: 3.13 mg/kg/injection, schedule: Q01DX009 (ip), vehicle: saline 108 % of control and 113 % of control and 121 % of control | dose: 6.25 mg/kg/injection, schedule: Q01DX009 (ip), vehicle: saline 105 % of control and 90 % of control and 95 % of control | dose: 12.5 mg/kg/injection, schedule: Q01DX009 (ip), vehicle: saline 94 % of control | dose: 25.0 mg/kg/injection, schedule: Q01DX009 (ip), vehicle: saline with Tween-80 91 % of control | dose: 25.0 mg/kg/injection, schedule: Q01DX009 (ip), vehicle: saline 96 % of control | [5] 97 % of control

O=c1[nH]c2ccc(O)cc2o1
inactive: [10] 108 % of control | [11] 95 % of control | dose: 240.0 mg/kg/injection, schedule: Q01DX005 (ip), vehicle: saline with Tween-80 100 % of control

Cc1ccc2c(CC(C)(C)[N+]3(C)CCCC3)ccc(C(C)C)cc1-2
inactive: dose: 100.0 mg/kg/injection, schedule: Q04DX002 (ip), vehicle: Klucel (hydroxypropylcellulose) (HPC) 114 % of control | dose: 200.0 mg/kg/injection, schedule: Q04DX002 (ip), vehicle: Klucel (hydroxypropylcellulose) (HPC) 112 % of control | dose: 400.0 mg/kg/injection, schedule: Q04DX002 (ip), vehicle: Klucel (hydroxypropylcellulose) (HPC) 105 % of control

O=C1COC(c2ccccc2O)=NN1CCN1CCOCC1
inactive: [4] 103 % of control | [5] 103 % of control | [6] 94 % of control

Cc1cc(COCCN(C)C)on1
inactive: [10] 97 % of control | [11] 104 % of control

CN(C)C1=NS(=O)(=O)c2ccccc21
inactive: dose: 50.0 mg/kg/injection, schedule: Q01DX005 (ip), vehicle: saline with Tween-80 100 % of control | dose: 100.0 mg/kg/injection, schedule: Q01DX005 (ip), vehicle: saline with Tween-80 106 % of control | dose: 200.0 mg/kg/injection, schedule: Q01DX005 (ip), vehicle: saline with Tween-80 93 % of control

CC(=O)Oc1cccc2c1C(=O)C1CC=CC(OC(C)=O)C1C2=O (stereo unspecified)
inactive: [7] 100 % of control | [8] 100 % of control | [9] 100 % of control

COC(=O)C#CC(N)=O
inactive: dose: 1.25 mg/kg/injection, schedule: Q01DX009 (ip), vehicle: saline sonified 113 % of control | dose: 1.65 mg/kg/injection, schedule: Q01DX009 (ip), vehicle: saline with Tween-80 118 % of control | dose: 2.5 mg/kg/injection, schedule: Q01DX009 (ip), vehicle: saline with Tween-80 118 % of control | dose: 3.75 mg/kg/injection, schedule: Q01DX009 (ip), vehicle: saline with Tween-80 118 % of control | dose: 5.0 mg/kg/injection, schedule: Q01DX009 (ip), vehicle: saline sonified 122 % of control

CC1=N/C(=C\C=C\c2ccccc2)C(=O)O1
inactive: [1] 104 % of control | [2] 101 % of control | [3] 103 % of control
